In ChEMBL document CHEMBL1130457, “Design and synthesis of a novel class of thrombin inhibitors incorporating heterocyclic dipeptide surrogates” (Bioorg Med Chem Lett, 1997):

What was measured:
Serine protease 1 = Serine protease 1 (Homo sapiens, UniProt P07477)
Prothrombin = Prothrombin (Homo sapiens, UniProt P00734)
Description: Inhibitory concentration required to inhibit human thrombin enzyme was determined

[1] = target: Tissue-type plasminogen activator (Homo sapiens, UniProt P00750); test: Inhibitory concentration required to inhibit human Tissue type plasminogen activator was determined
Plasminogen = Plasminogen (Homo sapiens, UniProt P00747)
Coagulation factor X = Coagulation factor X (Homo sapiens, UniProt P00742)
Chain of Coagulation factor X (P00742 41-179 limits assumed): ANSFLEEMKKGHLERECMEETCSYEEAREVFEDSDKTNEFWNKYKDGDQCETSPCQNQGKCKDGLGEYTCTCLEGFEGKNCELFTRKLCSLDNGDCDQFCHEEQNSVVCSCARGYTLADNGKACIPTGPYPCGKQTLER
Chain of Coagulation factor X (P00742 235-488 limits assumed): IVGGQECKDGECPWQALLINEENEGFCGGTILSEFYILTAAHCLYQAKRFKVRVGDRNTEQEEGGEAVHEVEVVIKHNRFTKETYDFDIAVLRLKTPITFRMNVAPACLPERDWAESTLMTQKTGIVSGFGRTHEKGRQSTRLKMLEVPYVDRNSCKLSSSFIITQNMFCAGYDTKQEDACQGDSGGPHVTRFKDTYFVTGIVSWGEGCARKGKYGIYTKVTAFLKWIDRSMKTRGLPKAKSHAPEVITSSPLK

Chain of Tissue-type plasminogen activator (P00750 whole entry): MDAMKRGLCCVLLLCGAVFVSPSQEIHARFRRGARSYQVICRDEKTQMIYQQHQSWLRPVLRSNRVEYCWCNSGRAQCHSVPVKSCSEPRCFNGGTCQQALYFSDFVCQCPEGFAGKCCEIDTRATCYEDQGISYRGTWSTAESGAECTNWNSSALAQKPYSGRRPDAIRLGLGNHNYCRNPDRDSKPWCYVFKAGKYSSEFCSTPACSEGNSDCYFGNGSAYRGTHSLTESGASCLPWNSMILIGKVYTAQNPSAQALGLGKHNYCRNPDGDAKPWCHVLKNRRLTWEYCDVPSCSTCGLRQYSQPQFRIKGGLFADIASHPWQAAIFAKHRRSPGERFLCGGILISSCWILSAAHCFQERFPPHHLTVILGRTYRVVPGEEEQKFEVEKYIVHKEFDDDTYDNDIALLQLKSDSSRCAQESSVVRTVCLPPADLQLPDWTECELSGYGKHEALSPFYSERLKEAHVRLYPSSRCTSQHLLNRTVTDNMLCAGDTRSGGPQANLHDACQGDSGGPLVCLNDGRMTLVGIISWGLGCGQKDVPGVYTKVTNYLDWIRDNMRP
Chain of Serine protease 1 (P07477 whole entry): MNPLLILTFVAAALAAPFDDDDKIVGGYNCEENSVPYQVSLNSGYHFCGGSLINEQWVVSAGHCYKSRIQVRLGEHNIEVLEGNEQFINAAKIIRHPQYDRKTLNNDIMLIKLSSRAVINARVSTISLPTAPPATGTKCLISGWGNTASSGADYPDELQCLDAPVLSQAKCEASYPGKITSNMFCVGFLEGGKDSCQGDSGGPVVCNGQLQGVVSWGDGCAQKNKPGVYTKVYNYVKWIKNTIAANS
Chain of Plasminogen (P00747 97-580 limits assumed): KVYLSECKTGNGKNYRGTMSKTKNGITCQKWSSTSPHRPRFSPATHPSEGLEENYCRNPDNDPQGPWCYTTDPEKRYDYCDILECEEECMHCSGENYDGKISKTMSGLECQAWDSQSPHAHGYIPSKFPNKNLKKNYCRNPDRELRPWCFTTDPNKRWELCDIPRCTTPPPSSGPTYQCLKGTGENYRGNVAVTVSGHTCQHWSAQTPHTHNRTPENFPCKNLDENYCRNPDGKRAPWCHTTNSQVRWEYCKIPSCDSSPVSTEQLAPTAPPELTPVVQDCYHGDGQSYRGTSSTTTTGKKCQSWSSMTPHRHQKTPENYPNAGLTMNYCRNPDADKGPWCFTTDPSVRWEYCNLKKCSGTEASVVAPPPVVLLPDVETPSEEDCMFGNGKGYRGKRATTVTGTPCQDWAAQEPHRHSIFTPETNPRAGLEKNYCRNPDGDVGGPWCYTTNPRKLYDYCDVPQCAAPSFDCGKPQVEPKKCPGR
Chain of Plasminogen (P00747 581-810 limits assumed): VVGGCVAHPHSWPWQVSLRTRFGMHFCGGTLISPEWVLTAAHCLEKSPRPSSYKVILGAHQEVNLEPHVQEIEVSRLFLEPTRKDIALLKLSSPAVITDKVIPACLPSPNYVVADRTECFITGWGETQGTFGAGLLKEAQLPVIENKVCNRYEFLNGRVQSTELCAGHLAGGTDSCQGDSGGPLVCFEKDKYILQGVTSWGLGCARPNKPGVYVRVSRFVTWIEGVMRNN

Compound | IC50 (Serine protease 1) [nM] | IC50 (Prothrombin) [nM] | IC50 [1] [nM] | IC50 (Plasminogen) [nM] | IC50 (Coagulation factor X) [nM]
N=C(N)N1CCC[C@H](NC(=O)Cn2cccc(NS(=O)(=O)Cc3ccccc3)c2=O)C1O (stereo not given in full) | 26.2 | 0.505 | > 2500 | > 2500 | 20.9
Cc1ccc(NS(=O)(=O)Cc2ccccc2)c(=O)n1CC(=O)N[C@H]1CCCN(C(=N)N)C1O (stereo not given in full) | 10.9 | 0.467 | > 2500 | > 2500 | 447
Cc1ncc(NS(=O)(=O)Cc2ccccc2)c(=O)n1CC(=O)N[C@H]1CCCN(C(=N)N)C1O (stereo not given in full) | 160 | 2.32 | > 2500 | > 2500 | 905
Cn1cc(NS(=O)(=O)Cc2ccccc2)c(=O)n(CC(=O)N[C@H]2CCCN(C(=N)N)C2O)c1=O (stereo not given in full) | 396 | 141 | > 2500 | > 2500 | 2500
N=C(N)N1CCC[C@H](NC(=O)CN2CCC[C@H](NS(=O)(=O)Cc3ccccc3)C2=O)C1O (stereo not given in full) | 791 | 6.2 | > 2500 | > 2500 | 2500
